These results are taken from patent publication US20100179137A1, “PYRIDONE COMPOUND” (priority 2007, published 2010).

The target in the first assay is T1, rat EP4 receptor (Rattus norvegicus, UniProt P43114).
T1 construct: expressed in transfected cells; host or cells: HEK293 cells, transient transfection with Lipofectamine 2000; membrane fraction used
T1 sequence (P43114 whole entry): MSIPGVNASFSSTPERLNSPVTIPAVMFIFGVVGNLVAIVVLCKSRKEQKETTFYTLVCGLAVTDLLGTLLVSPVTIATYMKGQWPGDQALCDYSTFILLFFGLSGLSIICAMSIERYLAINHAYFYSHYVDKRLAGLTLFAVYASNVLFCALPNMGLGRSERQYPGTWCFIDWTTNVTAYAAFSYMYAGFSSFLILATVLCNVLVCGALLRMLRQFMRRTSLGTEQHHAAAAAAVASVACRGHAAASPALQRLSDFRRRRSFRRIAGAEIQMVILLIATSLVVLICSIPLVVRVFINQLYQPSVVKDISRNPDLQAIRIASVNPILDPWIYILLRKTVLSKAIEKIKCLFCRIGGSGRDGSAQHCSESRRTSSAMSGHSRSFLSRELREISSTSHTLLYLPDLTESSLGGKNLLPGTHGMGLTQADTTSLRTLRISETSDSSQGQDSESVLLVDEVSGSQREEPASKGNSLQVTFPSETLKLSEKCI
In words: Evaluation test on EP4 receptor affinity in rat ([3H]PGE2 receptor binding test). Conditions: [3H]PGE2 0.3 nM, membrane fraction of rat EP4 expressing HEK293 cells. The procedure:
A rat EP4 receptor cDNA was subcloned into an expression vector (pcDNA3.1-V5-His-topo, manufactured by Invitrogen Corporation) to prepare a rat EP4 expression vector. HEK293 cells were cultured in a collagen type I-treated 15 cm dish (manufactured by Asahi Techno Glass Co., Ltd.) to a confluence of 70%. An Opti-MEM culture medium at 1.2 mL/dish and a transfection reagent (Lipofectamine 2000, manufactured by Invitrogen Corporation) at 60 μL/dish were mixed, followed by being left to stand at room temperature for 5 minutes. Then, the rat EP4 receptor expression vector at 15 μg/dish was added thereto, followed by being left to stand at room temperature for 30 minutes. The liquid mixture of the transfection reagent was added into the dish, followed by culturing for 20 to 24 hours. The cell culture was carried out in a CO2 incubator (37° C., 5% CO2).
The culture medium was removed by suction, 10 mL of cooled PBS was added thereto per 15 cm dish, and the cells were scraped using a cell scraper. After washed with cooled PBS (1,200 rpm, 4° C., 5 minutes), suspended in 6 mL/dish of cooled 20 mM Tris-HCl (pH 7.4; manufactured by Nacalai Tesque Inc., 5 mM EDTA included) and homogenized using a Polytron, the homogenate was centrifuged (26,000 rpm, 20 minutes, 4° C.). The obtained precipitate was resuspended in cooled 20 mM Tris-HCl and homogenized again using a Polytron, and the homogenate was centrifuged (26,000 rpm, 20 minutes, 4° C.). The obtained precipitate was resuspended in 50 mM HEPES (pH 7.5; manufactured by Dojindo Laboratories) at 1 mL per dish, homogenized using a Polytron, and freeze-stored at −80° C. as a membrane fraction. At this time, a part thereof was used for the measurement of the protein concentration. Measurement of the protein concentration was carried out using a Protein assay stain (manufactured by Bio-Rad Laboratories) in accordance with a standard Protocol as appended in duplicate.
[^3H]PGE2 50 μL (final concentration 0.3 nM; manufactured by Perkin Elmer Co., Ltd.), 100 μL (20 μg/well) of the membrane fraction prepared from the rat EP4 expression cell, and 50 μL of a test compound were mixed in a 96-well microplate (manufactured by Sumitomo Bakelite Co., Ltd.), incubated at room temperature for 1 hour, then filtered by suction on a microplate (UniFilter-96 GF/B, manufactured by Perkin Elmer Co., Ltd.) using a cell harvester (FilterMate Harvester, manufactured by Perkin Elmer Co., Ltd.), and washed three times with 300 μL/well of a cooled assay buffer (50 mM HEPES, 10 mM MgCl2). Dilution of [^3H]PGE2 and the membrane fraction was carried out using the assay buffer, and dilution of the test compound and the unlabeled PGE2 was carried out using dimethyl sulfoxide and the assay buffer. The UniFilter-96 GF/B was treated by preliminarily washing twice with 200 μL/well of the cooled assay buffer. The UniFilter-96 GF/B after filtration was dried in a dryer overnight, 50 μL/well of a liquid scintillation cocktail (MicroScint20, manufactured by Perkin Elmer Co., Ltd.) was added thereto, and the radioactivity was then measured using a liquid scintillation counter for a microplate (TopCount, manufactured by Perkin Elmer Co., Ltd.). For measurement of the non-specific binding, an unlabeled PGE2 (final concentration 1 μM; manufactured by Cayman Chemical Company) was added. All of the measurements were carried out in duplicate, and the specific binding amount was determined by subtracting the non-specific binding amount from the total binding amount.
According to the test method as described above, the rat EP4 receptor affinity (Ki) of the compound of the present invention was measured. […] In addition, Ex means Example Compound No.
In the case of `O=C(O)c1ccc(CCn2c(/C=C/c3cccc(OC(F)(F)F)c3)c(Cl)ccc2=O)cc1` [Example 126], the inhibition constant Ki was determined as 4.9 nM.
Same read-out and setting: with `CC(C)Oc1ccccc1OCc1c(Cl)cc(Cl)c(=O)n1CCc1ccc(C(=O)O)cc1` [Example 74] the figure was 10 nM.
Still for that read-out and setting: the result for `O=C(O)c1ccc(CCn2c(/C=C/c3ccccc3OC(F)(F)F)c(Cl)cc(Cl)c2=O)cc1` [Example 106] reads 30 nM.
The same measure, in the same setting: the result for `O=C(O)c1ccc(CCn2c(CCc3ccccc3OC(F)(F)F)c(Cl)cc(Cl)c2=O)cc1` [Example 350] reads 19 nM.
Take `CCCOc1cccc(/C=C/c2c(Cl)cc(Cl)c(=O)n2CCc2ccc(C(=O)O)cc2)c1` [Example 99]: the affinity corresponds to a Ki of 1.7 nM.
Still for that read-out and setting: the result for `CCc1cccc(OCc2c(C3CC3)cc(Cl)c(=O)n2CCc2ccc(C(=O)O)cc2)c1` [Example 139] reads 8.2 nM; that for `CCCc1cccc(OCc2c(Cl)cc(Cl)c(=O)n2CCc2ccc(C(=O)O)cc2)c1` [Example 171], 1.1 nM.
On the same count and under the same terms, the result for `O=C(O)c1ccc(CCn2c(/C=C/c3cccc(OC(F)(F)F)c3)c(C3CC3)cc(Cl)c2=O)cc1` [Example 120] reads 7.9 nM; that for `COc1cccc(OCc2c(Br)cc(Br)c(=O)n2CCc2ccc(C(=O)O)cc2)c1` [Example 2, 4-(2-{3,5-dibromo-6-[(3-methoxyphenoxy)methyl]-2-oxopyridin-1(2H)-yl}ethyl)benzoic acid], 61 nM.
Same read-out and setting: the result for `CC(C)c1cccc(/C=C/c2c(Cl)cc(Cl)c(=O)n2CCc2ccc(C(=O)O)cc2)c1` [Example 91] reads 9.4 nM.
For `CCc1cccc(/C=C/c2c(Br)ccc(=O)n2CCc2ccc(C(=O)O)cc2)c1` [Example 124], the Ki came out at 4.4 nM.
On the same count and under the same terms, with `CCc1cccc(/C=C/c2c(Cl)ccc(=O)n2CCc2ccc(C(=O)O)cc2)c1` [Example 125] the figure was 7.5 nM.
On the same count and under the same terms, with `O=C(O)c1ccc(CCn2c(CCc3cccc(OC(F)(F)F)c3)c(C3CC3)cc(Cl)c2=O)cc1` [Example 122] the figure was 12 nM; with `CC(C)c1cccc(OCc2c(Cl)cc(Cl)c(=O)n2CCc2ccc(C(=O)O)cc2)c1` [Example 1, 4-(2-{3,5-dichloro-6-[(3-isopropylphenoxy)methyl]-2-oxopyridin-1(2H)-yl}ethyl)benzoic acid], 2.8 nM.
Same read-out and setting: the result for `COc1cccc(COc2c(Br)cc(Cl)cc2CCc2ccc(C(=O)O)cc2)c1` [4-(2-{3-bromo-5-chloro-2-[(3-methoxybenzyl)oxy]phenyl}ethyl)benzoic acid, reference compound] reads 27 nM.
In turn, `COc1cccc(/C=C/c2c(Br)cc(Br)c(=O)n2CCc2ccc(C(=O)O)cc2)c1` [Example 4, 4-(2-{3,5-dibromo-6-[(E)-2-(3-methoxyphenyl)vinyl]-2-oxopyridin-1(2H)-yl}ethyl)benzoic acid] displayed an inhibition constant (Ki) of 7.1 nM.
Same read-out and setting: with `CCOc1ccccc1CCc1c(Cl)cc(Cl)c(=O)n1CCc1ccc(C(=O)O)cc1` [Example 90] the figure was 6.2 nM; with `COc1cccc(/C=C/c2c(Br)cc(Br)c(=O)n2CCCCCCC(=O)O)c1` [Example 15], 35 nM.

For a further assay, the system named is hindlimb blood flow in anesthetized rat. Kind of assay: Hindlimb blood flow increasing action in anesthetized rat. It counts as in vivo. The following applies: oral, Wistar male rats. As to the method: Wistar male rats were used. The test compound was orally administered, and after 2 hours, the hindlimb blood was measured using a laser blood flow imaging apparatus (PIM II, manufactured by Integral Corporation). At 20 minutes before the measurement, 60 mg/kg of pentobarbital was intraperitoneally administered to conduct anesthesia.
Regarding `COc1cccc(COc2c(Br)cc(Cl)cc2CCc2ccc(C(=O)O)cc2)c1` [4-(2-{3-bromo-5-chloro-2-[(3-methoxybenzyl)oxy]phenyl}ethyl)benzoic acid, reference compound], the “lowest effective dose causing a blood flow increasing action of 120% or more” value came to 3 mg/kg.

Usually Ki stands for the equilibrium dissociation constant of an inhibitor or competing ligand from its target.
